The source of these data is ChEMBL document CHEMBL1201862, “PubChem BioAssay data set” (2004).

For experiment [1], the system named is BJ. The experiment can be described thus: cytotoxicity toward BJ-TERT-LT-ST fibroblasts, dose response, cell-based, RAS-independent, luminescence (AID 1935).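 Further: BJ fibroblasts immortalized with TERT plus LT and ST oncogenes.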 It counts as functional. Conditions: Homo sapiens.
For experiment [2], the system named is BJ. Briefly: cells. It counts as functional, cell-based, Homo sapiens. Conditions: Homo sapiens, BJ.
Experiment [3] in a line: cytotoxicity toward DRD oncogenic fibroblasts, dose response, cell-based, non-viral oncogenic, luminescence (AID 1934). The class given is functional. The conditions noted are these: Homo sapiens.
In the next experiment the target is Cytochrome P450 2C19 (Homo sapiens, UniProt P33261). Briefly: Cytochrome panel assay with activity outcomes. Panel member name: p450-cyp2c19 Compounds with AC50 equal or less than 10 uM are considered active. It counts as functional. The conditions noted are these: read-out: AC50.
Chain of Cytochrome P450 2C19 (P33261 whole entry): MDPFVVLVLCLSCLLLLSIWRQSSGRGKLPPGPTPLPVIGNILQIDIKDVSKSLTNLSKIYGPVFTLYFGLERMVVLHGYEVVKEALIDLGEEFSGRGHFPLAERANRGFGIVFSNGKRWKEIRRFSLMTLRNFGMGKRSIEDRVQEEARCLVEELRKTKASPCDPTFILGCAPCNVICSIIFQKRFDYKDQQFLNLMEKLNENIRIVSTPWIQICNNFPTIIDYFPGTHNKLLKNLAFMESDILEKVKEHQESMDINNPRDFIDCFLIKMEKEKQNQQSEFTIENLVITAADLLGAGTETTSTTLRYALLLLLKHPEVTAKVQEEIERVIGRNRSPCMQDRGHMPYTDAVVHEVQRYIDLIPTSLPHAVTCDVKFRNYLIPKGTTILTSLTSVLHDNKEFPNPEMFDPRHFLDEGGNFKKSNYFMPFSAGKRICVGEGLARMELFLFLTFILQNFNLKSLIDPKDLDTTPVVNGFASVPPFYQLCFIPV
Experiment [4] deals with BJ. Briefly: cytotoxicity toward BJ-TERT fibroblasts, dose response, cell-based, RAS-independent, luminescence (AID 1933). The class given is functional. The conditions noted are these: Homo sapiens.
In another experiment the test system is INS1. The experiment can be described thus: beta cell apoptosis inhibitors, cytokine rescue, dose response, luminescence, retest (AID 449756).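 Further: cell death triggered by IL-1 beta plus TNF-alpha plus IFN-gamma mixture; protective hits raise ATP signal compared with cytokine alone wells.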 The conditions noted are these: Rattus norvegicus. It counts as functional, cell-based.
The target of the next experiment is Cytochrome P450 3A4 (Homo sapiens, UniProt P08684). The conditions noted are these: Potency.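 Further: confirmatory qHTS run detecting inhibitors and substrates of CYP3A4.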
Chain of Cytochrome P450 3A4 (P08684 whole entry): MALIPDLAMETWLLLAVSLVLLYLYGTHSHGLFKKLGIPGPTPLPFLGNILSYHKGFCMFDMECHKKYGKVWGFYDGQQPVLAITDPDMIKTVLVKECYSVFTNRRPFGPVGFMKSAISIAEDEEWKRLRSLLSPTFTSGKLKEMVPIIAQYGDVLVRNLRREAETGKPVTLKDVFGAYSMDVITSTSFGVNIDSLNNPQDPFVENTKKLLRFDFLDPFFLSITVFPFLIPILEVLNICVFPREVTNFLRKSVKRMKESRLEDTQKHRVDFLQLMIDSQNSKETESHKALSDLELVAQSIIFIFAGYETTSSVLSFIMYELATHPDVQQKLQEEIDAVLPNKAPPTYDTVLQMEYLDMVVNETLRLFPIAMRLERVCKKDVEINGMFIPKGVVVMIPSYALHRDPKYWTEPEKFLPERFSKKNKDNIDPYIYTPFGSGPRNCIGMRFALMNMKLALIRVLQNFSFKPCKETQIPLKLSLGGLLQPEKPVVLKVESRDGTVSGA
Experiment [5] addresses T1, Short transient receptor potential channel 4 (Mus musculus, UniProt Q9QUQ5).
T1 sequence (Q9QUQ5 whole entry): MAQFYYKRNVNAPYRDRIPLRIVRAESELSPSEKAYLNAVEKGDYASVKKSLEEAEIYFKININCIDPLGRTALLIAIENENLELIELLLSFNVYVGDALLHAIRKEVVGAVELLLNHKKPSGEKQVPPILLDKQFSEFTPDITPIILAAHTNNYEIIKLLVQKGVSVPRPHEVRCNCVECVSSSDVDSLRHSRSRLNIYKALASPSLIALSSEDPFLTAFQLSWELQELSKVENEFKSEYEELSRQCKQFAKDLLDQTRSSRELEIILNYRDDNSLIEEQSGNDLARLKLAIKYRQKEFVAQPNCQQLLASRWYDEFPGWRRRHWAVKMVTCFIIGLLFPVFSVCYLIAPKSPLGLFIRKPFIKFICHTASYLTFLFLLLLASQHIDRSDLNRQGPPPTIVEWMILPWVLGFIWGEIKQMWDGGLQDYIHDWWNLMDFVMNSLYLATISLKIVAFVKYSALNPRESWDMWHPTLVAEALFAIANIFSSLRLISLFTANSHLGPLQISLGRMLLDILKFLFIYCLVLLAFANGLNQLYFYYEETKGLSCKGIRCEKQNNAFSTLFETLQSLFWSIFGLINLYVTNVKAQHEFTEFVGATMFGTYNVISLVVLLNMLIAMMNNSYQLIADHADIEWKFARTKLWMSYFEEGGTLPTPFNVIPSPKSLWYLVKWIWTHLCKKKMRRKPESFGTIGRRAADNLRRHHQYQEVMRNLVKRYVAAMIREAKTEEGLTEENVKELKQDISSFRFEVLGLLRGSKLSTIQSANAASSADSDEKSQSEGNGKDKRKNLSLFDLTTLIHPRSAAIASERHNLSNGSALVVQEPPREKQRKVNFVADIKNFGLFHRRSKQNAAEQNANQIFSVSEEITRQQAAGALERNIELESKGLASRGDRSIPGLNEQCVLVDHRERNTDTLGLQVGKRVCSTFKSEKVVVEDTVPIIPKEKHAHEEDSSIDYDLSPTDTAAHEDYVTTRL
Briefly: mouse TRPC4 channel inhibitors, dose response, cell-based, HEK293 TRPC4/mu-opioid, Fluo-4 calcium (AID 434942).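 Further: potency of inhibitors blocking the TRPC4 calcium response.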 It counts as functional.

In experiment [6] the target is T1, Short transient receptor potential channel 4. The experiment can be described thus: mouse TRPC4 channel activators, dose response, cell-based, HEK293 TRPC4/mu-opioid, Fluo-4 calcium (AID 434937). It counts as functional.
The next experiment addresses T2, Protein RecA (Mycobacterium tuberculosis, UniProt P9WHJ3).
T2 sequence (P9WHJ3 whole entry): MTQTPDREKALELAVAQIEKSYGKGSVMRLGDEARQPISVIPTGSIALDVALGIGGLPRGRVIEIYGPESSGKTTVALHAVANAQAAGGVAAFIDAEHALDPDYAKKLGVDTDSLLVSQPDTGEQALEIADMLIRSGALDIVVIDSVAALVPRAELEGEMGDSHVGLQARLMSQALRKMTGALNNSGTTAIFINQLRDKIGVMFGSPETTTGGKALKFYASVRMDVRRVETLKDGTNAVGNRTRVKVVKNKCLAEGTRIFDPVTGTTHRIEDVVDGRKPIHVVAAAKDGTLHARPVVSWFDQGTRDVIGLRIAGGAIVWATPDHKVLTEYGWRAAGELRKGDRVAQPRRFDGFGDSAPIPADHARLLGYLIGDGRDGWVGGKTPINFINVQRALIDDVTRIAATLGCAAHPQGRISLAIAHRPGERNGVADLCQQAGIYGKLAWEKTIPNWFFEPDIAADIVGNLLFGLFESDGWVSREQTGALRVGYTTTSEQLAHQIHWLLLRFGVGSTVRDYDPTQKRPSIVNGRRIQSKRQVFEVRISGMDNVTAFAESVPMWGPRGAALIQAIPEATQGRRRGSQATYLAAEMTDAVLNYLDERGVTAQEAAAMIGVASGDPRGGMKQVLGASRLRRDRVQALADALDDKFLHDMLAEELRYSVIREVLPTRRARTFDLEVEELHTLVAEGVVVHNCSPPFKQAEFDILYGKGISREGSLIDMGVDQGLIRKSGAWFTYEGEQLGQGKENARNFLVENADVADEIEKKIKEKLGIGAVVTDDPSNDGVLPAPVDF
Briefly: Fluorescence Cell-Free Homogeneous Dose Retest to Identify Inhibitors of RecA-Intein Splicing Activity. [Related pubchem assays (depositor defined):AID2097, AID2223, AID489010, AID492950]. It counts as functional.

For experiment [7], the target named is T3, Replicative DNA helicase DnaB (Mycobacterium tuberculosis, UniProt P9WMR3).
T3 sequence (P9WMR3 whole entry): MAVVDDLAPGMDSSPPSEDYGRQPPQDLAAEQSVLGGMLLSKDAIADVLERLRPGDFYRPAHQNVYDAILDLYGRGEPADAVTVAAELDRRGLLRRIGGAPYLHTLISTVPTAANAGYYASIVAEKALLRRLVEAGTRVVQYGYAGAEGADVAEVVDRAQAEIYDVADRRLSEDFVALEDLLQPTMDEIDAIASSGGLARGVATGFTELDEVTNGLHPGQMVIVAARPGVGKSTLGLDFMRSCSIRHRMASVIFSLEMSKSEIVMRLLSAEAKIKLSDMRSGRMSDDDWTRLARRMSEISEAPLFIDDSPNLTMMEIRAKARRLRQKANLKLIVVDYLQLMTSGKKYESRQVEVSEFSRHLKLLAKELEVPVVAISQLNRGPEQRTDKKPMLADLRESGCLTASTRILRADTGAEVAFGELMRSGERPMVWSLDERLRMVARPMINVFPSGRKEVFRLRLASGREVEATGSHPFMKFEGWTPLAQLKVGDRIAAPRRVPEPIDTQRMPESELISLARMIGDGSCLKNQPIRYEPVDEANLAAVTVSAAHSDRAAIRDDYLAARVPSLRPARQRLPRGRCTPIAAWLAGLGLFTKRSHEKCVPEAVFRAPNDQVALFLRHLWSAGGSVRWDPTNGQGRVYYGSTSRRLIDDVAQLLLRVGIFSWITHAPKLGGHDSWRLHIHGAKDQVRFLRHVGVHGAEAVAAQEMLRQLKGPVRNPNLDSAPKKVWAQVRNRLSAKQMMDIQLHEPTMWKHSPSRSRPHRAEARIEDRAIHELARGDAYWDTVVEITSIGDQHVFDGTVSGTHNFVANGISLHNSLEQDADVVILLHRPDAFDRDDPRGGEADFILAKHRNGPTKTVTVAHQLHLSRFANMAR
The experiment can be described thus: DnaB intein splicing inhibitors, dose response, biochemical, cell-free fluorescence (AID 449749). The class given is functional.

Experiment [8] addresses T4, Polyadenylate-binding protein 1 (Homo sapiens, UniProt P11940). The experiment can be described thus: PABP1 MLLE–PAM2 binding inhibitor potency, dose response, biochemical, fluorescence polarization, FITC-PAM2 peptide (AID 602259). It counts as functional. The conditions noted are these: read-out: IC50_Mean.
Experiment [9] concerns the target T4, Polyadenylate-binding protein 1. Briefly: PABP1 MLLE–PAM2 interaction inhibitors, dose response, miRNA deadenylation inhibitor project, biochemical, fluorescence polarization, Cy5-PAM2 peptide, secondary (AID 602260). The class given is functional. Conditions: read-out: IC50_Mean.
Experiment [10] in a line: intracellular Trypanosoma cruzi inhibitors in host cells – cell-based, plate reader, cherry-pick samples, set 3, dose response (AID 651818).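 Further: compounds incubated with infected cells for about four days.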 It counts as functional.

Activity calls are given as the source filed them.

T4 sequence (P11940 whole entry): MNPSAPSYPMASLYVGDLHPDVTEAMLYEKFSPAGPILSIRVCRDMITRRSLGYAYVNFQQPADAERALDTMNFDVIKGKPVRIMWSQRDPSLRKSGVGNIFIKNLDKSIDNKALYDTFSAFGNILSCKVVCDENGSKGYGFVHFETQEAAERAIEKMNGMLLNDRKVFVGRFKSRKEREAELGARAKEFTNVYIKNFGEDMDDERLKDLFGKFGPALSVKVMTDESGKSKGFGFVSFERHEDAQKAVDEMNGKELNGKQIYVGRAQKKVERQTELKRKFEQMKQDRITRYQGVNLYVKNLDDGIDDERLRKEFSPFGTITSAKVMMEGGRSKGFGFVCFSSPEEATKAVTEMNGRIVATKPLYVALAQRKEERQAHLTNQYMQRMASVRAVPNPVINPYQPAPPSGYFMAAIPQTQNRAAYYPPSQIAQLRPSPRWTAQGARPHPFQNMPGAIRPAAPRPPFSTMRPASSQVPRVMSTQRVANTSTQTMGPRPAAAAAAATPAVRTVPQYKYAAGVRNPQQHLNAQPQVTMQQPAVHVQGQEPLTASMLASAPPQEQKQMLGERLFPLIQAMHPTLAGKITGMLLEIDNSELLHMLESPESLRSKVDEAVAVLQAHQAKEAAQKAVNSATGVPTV

With `COc1ccc(-c2nc(-c3cccc(C)c3)nc(N3CCN(C)CC3)c2C#N)cc1`, the EC50 with BJ [1] is > 150 µM (not active); in the experiment with BJ [2] it was 23.3 µM (active); in [3], 14.8 µM (inconclusive); in the experiment on BJ [4], 16.5 µM (inconclusive). For the same molecule, the AC50 on Cytochrome P450 2C19 is 20 µM (inconclusive).
For `FC(F)(F)c1ccc(CN2C[C@@H]3C(c4ccc(C(F)(F)F)cc4)C4(c5cccnc5)CC3(C4)[C@H]2c2ccccc2)cc1` (stereo partly drawn), the AC50 in the experiment on INS1 is 6.2 µM (active); on Cytochrome P450 3A4, 31.6 µM (inconclusive).
Turning to `CC(=O)OCC1OC(Oc2cc(OC(C)=O)c3c(=O)cc(-c4ccc(OC(C)=O)cc4)oc3c2)[C@@H](OC(C)=O)C(OC(C)=O)C1OC(C)=O` (stereo partly drawn), the AC50 at Cytochrome P450 3A4 is 10 µM (inconclusive).
As for `CCOC(=O)C1(CC2CC2)CCN(Cc2c[nH]nc2-c2ccccc2)CC1`, the EC50 in [5] is 0.944 µM (active); in [6], 1.33 µM (active).
Take `CCCCNc1nc(C)nc2c1nc(-c1ccccc1)n2CC1CCN(C)CC1`: the AC50 on Cytochrome P450 3A4 is 15.8 µM (inconclusive).
In the case of `Nc1cc(N2CCCCC2)c([N+](=O)[O-])cc1Cl`, the EC50 in experiment [5] is 5.31 µM (active).
Take `Cc1ccn2c(CNCCCn3cccn3)c(C(=O)N3CCCCCC3)nc2c1`: in experiment [5], the EC50 was 2.11 µM (active).
For `Cc1cccc(CN2CCCC(C(=O)Nc3ccccc3Oc3cccnc3)C2)c1` (stereo not drawn), the EC50 in experiment [5] was 4.22 µM (active).
For `CC1(C)C(O)C=C[C@@]2(C)C1CC(=O)O[C@@]1(C)C3=CC(=O)OC(c4ccoc4)[C@]3(C)CCC21` (stereo partly drawn), at Cytochrome P450 3A4, the AC50 is 2 µM (inconclusive).
With `COC(=O)C/N=C1/OC(=O)N2C(=O)C3=C4[C@@H](C[C@H]5C(=O)N(c6ccccc6)C(=O)[C@H]5[C@H]4[C@@]12Cc1ccccc1)[C@H]1C(=O)N(c2ccccc2)C(=O)[C@H]1[C@H]3C`, the half-maximal activity concentration (AC50) on Cytochrome P450 3A4 was 6.31 µM (inconclusive).
On the same count and under the same terms, to `CCCn1c(-c2ccc(F)cc2)nc2c(NCCCN(CCO)CCO)nc(C)nc21` belongs 15.8 µM (inconclusive).
As to `CCOC(=O)c1ccc(Nc2sc(C(=O)c3cccc([N+](=O)[O-])c3)c(N)c2C#N)cc1`, the EC50 is 97.4 µM (active) with BJ [1], 92.4 µM (inconclusive) in the experiment on BJ [2], 136 µM (inconclusive) in experiment [3] and > 150 µM (not active) with BJ [4].
Turning to `Cc1nn(C(=O)CNS(=O)(=O)c2ccccc2)c(C)c1Sc1ccc(Cl)cc1`, the 50% effective concentration (EC50) in experiment [5] is 1.33 µM (active); on Protein RecA it was 17.2 µM (active). Also, the AC50 in experiment [7] was 4.2 µM (active).
As for `Cc1ccc(N(CC(=O)NC2CCCC2)C(=O)CNC(=O)c2cccs2)cc1F`, the EC50 in [5] is 5.96 µM (active).
In the case of `CCCCCN1C2=NCCN2c2ccccc21`, in experiment [5], the EC50 was 0.841 µM (active).
Take `O=CNc1ccc2c3c(cccc13)-c1ccccc1-2`: the IC50 in experiment [8] is 37.1 µM (inactive); in [9] it was 33.1 µM (inactive).
Turning to `C[C@@H]1CN([C@H](C)CO)C(=O)c2cccc(NC(=O)CCCCCC(=O)Nc3ccccc3N)c2O[C@H]1CN(C)Cc1ccc(-c2ccccc2)cc1`, the half-maximal activity concentration (AC50) in [10] is 2.18 µM (active).
Still for that read-out and setting: next, `C[C@@H]1CN([C@@H](C)CO)C(=O)c2cc(NS(=O)(=O)c3ccccc3)ccc2O[C@H]1CN(C)Cc1ccc(C(=O)Nc2ccccc2N)cc1`: 4.83 µM (active).
The same measure, in the same setting: to `Cc1ccc(S(=O)(=O)Nc2ccc3c(c2)CC(=O)N([C@H](C)CO)C[C@@H](C)[C@@H](CN(C)S(=O)(=O)c2ccccc2)O3)cc1` belongs 2.27 µM (active); to `C[C@@H]1CN([C@H](C)CO)C(=O)c2cccc(NC(=O)C3CCCCC3)c2O[C@H]1CN(C)Cc1ccc(C(F)(F)F)cc1`, 2.83 µM (active).
`CCCc1nc(C(C)(C)O)c(C(=O)OCc2oc(=O)oc2C)n1Cc1ccc(-c2ccccc2-c2nnn[nH]2)cc1` [OLMESARTAN MEDOXOMIL]: the AC50 at Cytochrome P450 3A4 is 25.1 µM (inconclusive).
